Where two headings read alike, the source gives them in different places.
Tests used:
[1] = tested on: Klebsiella pneumoniae ATCC-BAA 2470 (NDM+); assay: Drug efficacy in thigh muscle infection model in vivo (immunodeficient CD-1 female mice); details: for Average CFU of Mouse (bacterial load of thigh muscle tissue): end point 26 h
Method: 78 CD-1 female mice were divided into 26 cages, 3 mice per cage. The day of infection is counted as the 0 day.
150 mg/kg immunosuppressant cyclophosphamide was intraperitoneally injected on Day-4, and 100 mg/kg immunosuppressant cyclophosphamide was intraperitoneally injected again on Day-1 to obtain immunodeficient mice.
The strain Klebsiella pneumoniae ATCC-BAA 2470 (NDM+) was recovered on an MHA plate on Day-1. The recovered colonies were picked and dissolved in sterile saline to prepare a bacterial solution with a concentration of 5.95E+07 CFU/mL for use in mouse thigh muscle infection. The infection starting time was counted as 0 h, and 100μL of bacterial solution is injected into the thigh muscle of each mouse at 0 h, that is, the inoculation amount is 5.95E+06 CFU/mouse. 2 h after infection, the drugs were administered according to the experimental scheme. […] The mice in the 1st to 4th cage were administered at a total daily dose of 1600 mg/kg, the mice in the 5th to 8th cage were administered at a total daily dose of 480 mg/kg, the mice in the 9th to 12th cage were administered at a total daily dose of 160 mg/kg, the mice in the 13th to 16th cage were administered at a total daily dose of 48 mg/kg, the mice in the 17th to 20th cage were administered at a total daily dose of 16 mg/kg, the mice in the 21th to 24th cage were administered at a total daily dose of 4.8 mg/kg, and each dosage group was administered separately in four different dosage dividing manners, which were q3 h, q6 h, q12 h and q24 h separately. • (3) 26 h after infection: The endpoint of the experiment was at 26 h after infection, the thigh muscle tissue of the mice of the 1st to 26th cage was taken and placed in 10 mL sterile saline, the tissue was homogenized by a homogenizer, and the homogenate was dotted on a plate with gradient dilution, two duplications for each mouse. The bacterial load of the thigh muscle tissue of the mice was counted, and for the experimental results see Table 15.

[2] = Stability test of the crystal form A in different solvents (suspension 2 days, crystal form test); format: physicochemical; details: for Result (crystal form): 20~30° C., 2 days
[3] = Solid stability study of the crystal form A (high temperature, high humidity, light; XRPD, appearance, content, related substances); format: physicochemical
[4] = Pharmacokinetics study in rats in vivo, intravenous administration; parameters: species or system SD male rats; details: for AUC(0-t) / C0 / clearance / half-life / Vd: Sprague-Dawley (SD), rat, plasma, SD male rats, dissolved in saline; for AUC(0-t): read-out: AUC0-last Area under plasma concentration-time curve; for C0: read-out: C0 Initial concentration; for clearance: read-out: Cl Clearance rate; for half-life: read-out: T1/2 Half-life period (converted); for Vd: read-out: Vdss Apparent volume of distribution
Method: The pharmacokinetic characteristics in rodents after intravenous administration of the compound was tested with standard scheme. Specifically, SD male rats at the age of 7-10 weeks were administered intravenously with the candidate compound in the experiment. The compound was dissolved in salt water to prepare a clear solution. The plasma samples are collected and analyzed by LC-MS/MS, and the pharmacokinetic parameters were calculated.

[5] = Light 10 days (visible light intensity 5000 lux and ultraviolet intensity 90 μw/cm^2, open)
[6] = intravenous injection at 100 mg/kg
[7] = intravenous injection at 300 mg/kg

SMILES: NC[C@@H]1CN(C[C@@H]2[C@H](NC(=O)/C(=N\OC3(C(=O)O)CC3)c3csc(N)n3)C(=O)N2S(=O)O)S(=O)(=O)N1 (stereo in doubt)
- Average CFU of Mouse (bacterial load of thigh muscle tissue) ([1]; group 1: total daily dose 1600 mg/kg, single dose 60 mg/kg, q3h s.c.): 2.18E+06 CFU/Mouse
- Average CFU of Mouse (bacterial load of thigh muscle tissue) ([1]; group 2: total daily dose 1600 mg/kg, single dose 400 mg/kg, q6h s.c.): 2.45E+06 CFU/Mouse
- Average CFU of Mouse (bacterial load of thigh muscle tissue) ([1]; group 3: total daily dose 1600 mg/kg, single dose 800 mg/kg, q12h s.c.): 3.80E+08 CFU/Mouse
- Average CFU of Mouse (bacterial load of thigh muscle tissue) ([1]; group 4: total daily dose 1600 mg/kg, single dose 1600 mg/kg, q24h s.c.): 9.02E+09 CFU/Mouse
- Average CFU of Mouse (bacterial load of thigh muscle tissue) ([1]; group 5: total daily dose 480 mg/kg, single dose 60 mg/kg, q3h s.c.): 2.20E+06 CFU/Mouse
- Average CFU of Mouse (bacterial load of thigh muscle tissue) ([1]; group 6: total daily dose 480 mg/kg, single dose 120 mg/kg, q6h s.c.): 2.18E+08 CFU/Mouse
- Average CFU of Mouse (bacterial load of thigh muscle tissue) ([1]; group 7: total daily dose 480 mg/kg, single dose 240 mg/kg, q12h s.c.): 2.88E+09 CFU/Mouse
- Average CFU of Mouse (bacterial load of thigh muscle tissue) ([1]; group 8: total daily dose 480 mg/kg, single dose 480 mg/kg, q24h s.c.): 8.73E+09 CFU/Mouse
- Average CFU of Mouse (bacterial load of thigh muscle tissue) ([1]; group 9: total daily dose 160 mg/kg, single dose 20 mg/kg, q3h s.c.): 2.10E+06 CFU/Mouse
- Average CFU of Mouse (bacterial load of thigh muscle tissue) ([1]; group 10: total daily dose 160 mg/kg, single dose 40 mg/kg, q6h s.c.): 4.67E+08 CFU/Mouse
- Average CFU of Mouse (bacterial load of thigh muscle tissue) ([1]; group 11: total daily dose 160 mg/kg, single dose 80 mg/kg, q12h s.c.): 7.88E+09 CFU/Mouse
- Average CFU of Mouse (bacterial load of thigh muscle tissue) ([1]; group 12: total daily dose 160 mg/kg, single dose 160 mg/kg, q24h s.c.): 1.22E+10 CFU/Mouse
- Average CFU of Mouse (bacterial load of thigh muscle tissue) ([1]; group 13: total daily dose 48 mg/kg, single dose 6 mg/kg, q3h s.c.): 4.07E+06 CFU/Mouse
- Average CFU of Mouse (bacterial load of thigh muscle tissue) ([1]; group 14: total daily dose 48 mg/kg, single dose 12 mg/kg, q6h s.c.): 1.57E+09 CFU/Mouse
- Average CFU of Mouse (bacterial load of thigh muscle tissue) ([1]; group 15: total daily dose 48 mg/kg, single dose 24 mg/kg, q12h s.c.): 8.70E+09 CFU/Mouse
- Average CFU of Mouse (bacterial load of thigh muscle tissue) ([1]; group 16: total daily dose 48 mg/kg, single dose 48 mg/kg, q24h s.c.): 1.32E+10 CFU/Mouse
- Average CFU of Mouse (bacterial load of thigh muscle tissue) ([1]; group 17: total daily dose 16 mg/kg, single dose 2 mg/kg, q3h s.c.): 7.77E+07 CFU/Mouse
- Average CFU of Mouse (bacterial load of thigh muscle tissue) ([1]; group 18: total daily dose 16 mg/kg, single dose 4 mg/kg, q6h s.c.): 2.92E+09 CFU/Mouse
- Average CFU of Mouse (bacterial load of thigh muscle tissue) ([1]; group 19: total daily dose 16 mg/kg, single dose 8 mg/kg, q12h s.c.): 6.93E+09 CFU/Mouse
- Average CFU of Mouse (bacterial load of thigh muscle tissue) ([1]; group 20: total daily dose 16 mg/kg, single dose 16 mg/kg, q24h s.c.): 1.44E+10 CFU/Mouse
- Average CFU of Mouse (bacterial load of thigh muscle tissue) ([1]; group 21: total daily dose 4.8 mg/kg, single dose 0.6 mg/kg, q3h s.c.): 7.22E+08 CFU/Mouse
- Average CFU of Mouse (bacterial load of thigh muscle tissue) ([1]; group 22: total daily dose 4.8 mg/kg, single dose 1.2 mg/kg, q6h s.c.): 4.55E+09 CFU/Mouse
- Average CFU of Mouse (bacterial load of thigh muscle tissue) ([1]; group 23: total daily dose 4.8 mg/kg, single dose 2.4 mg/kg, q12h s.c.): 7.60E+09 CFU/Mouse
- Average CFU of Mouse (bacterial load of thigh muscle tissue) ([1]; group 24: total daily dose 4.8 mg/kg, single dose 4.8 mg/kg, q24h s.c.): 1.27E+10 CFU/Mouse
- Antibacterial effect in vivo (conclusion) ([1]; mouse thigh muscle infection, subcutaneous, 26 h after infection): significant antibacterial effect in vivo
- Effect of shortening the administration interval (conclusion) ([1]; same daily dose, q3 h, q6 h, q12 h, q24 h): significantly improve the efficacy in vivo
- Dose-effect relationship (conclusion) ([1]; total daily dose 4.8 to 1600 mg/kg): significant
- Appearance (2 days) ([2]; Acetonitrile): Suspension
- Appearance (2 days) ([2]; Acetonitrile-water(20:1)): Suspension
- Appearance (2 days) ([2]; Ethanol): Suspension
- Appearance (2 days) ([2]; Ethanol-water(20:1)): Suspension
- Appearance (2 days) ([2]; Ethyl acetate): Suspension
- Appearance (2 days) ([2]; Isopropanol): Suspension
- Appearance (2 days) ([2]; Isopropanol-water(20:1)): Suspension
- Appearance (2 days) ([2]; Tetrahydrofuran): Suspension
- Result (crystal form) ([2]; suspended in Acetonitrile): Crystal form A
- Result (crystal form) ([2]; suspended in Acetonitrile-water(20:1)): Crystal form A
- Result (crystal form) ([2]; suspended in Ethanol): Crystal form A
- Result (crystal form) ([2]; suspended in Ethanol-water(20:1)): Crystal form A
- Result (crystal form) ([2]; suspended in Ethyl acetate): Crystal form A
- Result (crystal form) ([2]; suspended in Isopropanol): Crystal form A
- Result (crystal form) ([2]; suspended in Isopropanol-water(20:1)): Crystal form A
- Result (crystal form) ([2]; suspended in Tetrahydrofuran): Crystal form A
- Stability in solvents (conclusion) ([2]; variety of solvents): stable
- Purity % ([3]; 0 day): 85.6%
- Total impurities % ([3]; 0 day): 14.4%
- Purity % ([3]; 25° C./75% RH-5 days (open)): 87.4%
- Total impurities % ([3]; 25° C./75% RH-5 days (open)): 12.6%
- Purity % ([3]; 25° C./75% RH-10 days (open)): 85.4%
- Total impurities % ([3]; 25° C./75% RH-10 days (open)): 14.6%
- Related substances and contents (conclusion) ([3]; 60° C., 25° C./75% RH and light conditions): did not change significantly
- Purity % ([3]; 60° C.-5 days (open)): 87.3%
- Total impurities % ([3]; 60° C.-5 days (open)): 12.7%
- Purity % ([3]; 60° C.-10 days (open)): 86.6%
- Total impurities % ([3]; 60° C.-10 days (open)): 13.4%
- Purity % [3, 5]: 86.4%
- Total impurities % [3, 5]: 13.6%
- Purity % ([3]; Light control -10 days): 86.8%
- Total impurities % ([3]; Light control -10 days): 13.2%
- Solid stability (conclusion) ([3]; high temperature, high humidity and light conditions): stable
- AUC(0-t) [4, 6]: 166 µM·h
- C0 [4, 6]: 581 µM
- clearance [4, 6]: 17.2 mL/min/kg
- half-life [4, 6]: 18.7 min
- Vd [4, 6]: 0.378 L/kg
- AUC(0-t) [4, 7]: 467 µM·h
- C0 [4, 7]: 1380 µM
- clearance [4, 7]: 18.4 mL/min/kg
- half-life [4, 7]: 21.7 min
- Vd [4, 7]: 0.463 L/kg
- Exposure versus dose (conclusion) ([4]; rats, intravenous): increases linearly

Source: US20240277677A1, “SALT FORM AND CRYSTAL FORM THEREOF OF SULFONYLUREA RING SUBSTITUTED COMPOUND” (priority 2022, published 2024)
